Target: T1, a4b7 integrin interaction with MadCAM-1 (Homo sapiens, UniProt P13612+P26010)
T1 construct: capture of a4b7 integrin expressing cells, RPMI8866; endogenous in cells; host or cells: RPMI8866
T1 sequence (P13612 34-1032): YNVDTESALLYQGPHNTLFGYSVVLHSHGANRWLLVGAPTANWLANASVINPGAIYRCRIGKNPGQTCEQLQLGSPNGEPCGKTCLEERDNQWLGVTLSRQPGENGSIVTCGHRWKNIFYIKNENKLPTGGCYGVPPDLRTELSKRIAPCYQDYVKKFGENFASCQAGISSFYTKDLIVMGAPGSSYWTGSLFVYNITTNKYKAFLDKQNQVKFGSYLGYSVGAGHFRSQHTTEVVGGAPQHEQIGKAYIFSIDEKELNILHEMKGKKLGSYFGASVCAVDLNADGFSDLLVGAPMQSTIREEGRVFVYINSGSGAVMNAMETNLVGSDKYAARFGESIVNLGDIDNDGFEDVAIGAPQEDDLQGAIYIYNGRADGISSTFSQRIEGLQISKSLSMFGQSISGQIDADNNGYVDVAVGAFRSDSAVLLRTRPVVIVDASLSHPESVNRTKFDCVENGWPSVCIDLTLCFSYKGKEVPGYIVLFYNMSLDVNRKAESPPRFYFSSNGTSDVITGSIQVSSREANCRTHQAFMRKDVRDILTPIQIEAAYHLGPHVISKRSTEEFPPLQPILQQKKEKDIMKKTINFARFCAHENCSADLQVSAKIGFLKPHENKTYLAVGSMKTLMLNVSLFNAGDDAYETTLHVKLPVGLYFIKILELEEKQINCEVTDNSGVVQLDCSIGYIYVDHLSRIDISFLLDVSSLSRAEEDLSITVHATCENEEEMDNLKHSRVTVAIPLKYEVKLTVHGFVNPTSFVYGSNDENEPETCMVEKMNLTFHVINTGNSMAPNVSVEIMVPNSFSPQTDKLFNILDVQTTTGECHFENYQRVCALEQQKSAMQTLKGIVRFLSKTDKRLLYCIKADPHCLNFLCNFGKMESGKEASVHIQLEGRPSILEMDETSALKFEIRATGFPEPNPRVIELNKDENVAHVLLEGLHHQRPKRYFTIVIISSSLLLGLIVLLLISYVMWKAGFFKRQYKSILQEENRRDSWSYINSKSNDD
T1 sequence (P26010 20-798): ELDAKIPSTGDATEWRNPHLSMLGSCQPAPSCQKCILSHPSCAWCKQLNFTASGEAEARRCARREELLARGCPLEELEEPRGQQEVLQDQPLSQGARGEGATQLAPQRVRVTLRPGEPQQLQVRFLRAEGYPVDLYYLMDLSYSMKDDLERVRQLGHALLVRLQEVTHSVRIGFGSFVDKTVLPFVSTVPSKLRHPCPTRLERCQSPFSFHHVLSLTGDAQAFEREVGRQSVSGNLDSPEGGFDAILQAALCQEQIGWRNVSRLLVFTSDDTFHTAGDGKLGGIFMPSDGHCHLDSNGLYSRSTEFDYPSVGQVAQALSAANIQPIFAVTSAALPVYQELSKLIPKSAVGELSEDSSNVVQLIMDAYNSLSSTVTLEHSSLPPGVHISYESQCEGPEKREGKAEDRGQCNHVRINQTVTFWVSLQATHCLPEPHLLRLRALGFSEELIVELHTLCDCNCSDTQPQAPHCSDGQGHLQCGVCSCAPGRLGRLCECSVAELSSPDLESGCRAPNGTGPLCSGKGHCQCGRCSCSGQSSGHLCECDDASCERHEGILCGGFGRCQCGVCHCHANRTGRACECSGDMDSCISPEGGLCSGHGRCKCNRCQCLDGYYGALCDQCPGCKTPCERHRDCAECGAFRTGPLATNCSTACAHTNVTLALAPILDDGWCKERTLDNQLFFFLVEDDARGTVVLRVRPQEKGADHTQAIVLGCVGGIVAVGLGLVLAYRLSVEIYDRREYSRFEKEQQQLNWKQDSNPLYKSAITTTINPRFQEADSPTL
Assay: a4b7 Cell Capture Assay (RPMI8866 cells on MAdCAM-1 Fc coated plates)
Format: cell-based
Settings: 50% human serum, 1 mM MgCl2, 1 hour incubation, CellTiter-Glo luminescence, read-out: a4B7 cell capture assay RMPI8866-MadCAM EC50
Experimental: The potency of inhibitors in preventing a4b7 integrin interaction with MadCAM-1 was measured by monitoring the capture of a4b7 integrin expressing cells, RPMI8866, on recombinant human MAdCAM-1 Fc chimera protein-coated plates. The protein was a fusion between human MAdCAM-1 (Met1-Gln333, Accession #AAY82472) and human IgG1 (Pro100-Lys330)] (R&D Systems, Catalog #6056-MC). 96-well plates (Thermofisher, Catalog #136102) were coated with the recombinant protein by dispensing 100 μL (1.0 μg/mL) per well. After a quick spin to settle down the coating solution using a plate centrifuge, plates were incubated overnight at 4° C. in a moisture chamber. On Day 2, the plates were washed with PBS using a Bluecatbio Blue®Washer (GentleSpin wash, 3 cycles, pressure=1, volume 150 uL). Blocking solution (1.0% BSA in PBS, Sigma, Catalog #A7979) was then added at 200 uL/well, and the plates were quickly spun to settle down blocking buffer and incubated in cell culture incubator at 37° C. and 5% CO2 for 1 hour. The plates were then washed with 0.1% BSA in PBS using a Bluecatbio Blue®Washer (GentleSpin wash, 3 cycles, pressure=1, volume 150 uL). RPMI8866 cells suspended in assay medium (1 mM MgCl2 25 mM HEPES and 50% human serum, Sigma, Catalog #H4522) at a density of 1.0×10^6 cells/mL were added at 100 uL/well. Each compound evaluated was prepared as a DMSO stock solution. Test compounds were evaluated with a 9-point serial dilution curve (1000, 333.3, 111.1, 55.6, 27.8, 13.9, 6.9, 2.3, and 0.77 nM)) and were added to the plates using a Tecan D.30e Digita dispenser, the dispensed stock is 100 nL and the final DMSO concentration is 0.1%. Potent compounds were re-evaluated at a new 9-point serial dilution curve (100, 33.3, 11.1, 5.6, 2.8, 1.4, 0.69, 0.23, and 0.08 nM). Each titration curves were performed in triplicate on the same plate, and most of compounds were retested in different dates multiple times. The plates were shaken at 300 rpm on orbital plate shaker for 3 minutes to mix the cells and compounds, quickly spun to settle the cells and solution, and incubated in cell culture incubator at 37° C. and 5% CO2. After 1 hour incubation, the unbound cells were washed away with RPMI1640 medium supplemented with 1 mM MgCl2 and 1% BSA) (wash buffer) using a Bluecatbio Blue®Washer (MagbeadsSpin wash, 1 cycle, pressure 1, volume=150 uL). After wash buffer removal, A mixture of wash buffer/CellTiter-Glo® Reagent (Pormega, catalog #G7573) at 1:1 (V/V) was added at volume of 100 uL to each well. The plates were placed in a chamber at 25° C. and incubated for 30 minutes. Luminescence was recorded using a Envision plate reader 2105 according to CellTiter-Glo protocol.
The mean luminescence signals from negative control wells without MadCAM-1 coating and compound treatment (cells only) was defined as 100% binding inhibition, and the mean luminescence signals from positive control wells with MadCAM-1 coating but without compound treatment (MadCAM-1 and cells only) was defined as 0% binding inhibition. The luminescence signals from other compound treated wells were normalized in percentage scale accordingly. The normalized mean % inhibition data were plotted against logarithmic compound concentration in nanomolar and were fitted with 4-parameter logistic model to obtain IC50 for each compound.

| EC50 [nM] | SMILES |
| --- | --- |
| > 100 | Cc1cc2cc(c1F)[C@H](CC(=O)O)NC(=O)[C@@H](n1cc(CCN3CC(F)C3)c(C(F)(F)F)cc1=O)c1cc(ccc1F)COc1ccc(F)cc1-2 (single isomer, unassigned) [Example 50] |
| 42 | Cc1cc2cc(c1F)[C@H](CC(=O)O)NC(=O)[C@@H](n1cc(CCN3CC(F)C3)c(C(F)(F)F)cc1=O)c1cc(ccc1F)COc1ccc(F)c(C)c1-2 (single isomer, unassigned) [Example 61] |
| 27 | Cc1cccc2c1-c1cc(C3CC3)c(F)c(c1)[C@H](CC(=O)O)NC(=O)[C@@H](n1ccc(C(F)(F)F)cc1=O)c1cc(ccc1F)O2 (single isomer, unassigned) [Example 73] |
| 190 | Cc1cccc2c1-c1cc(c(F)c(C(F)(F)F)c1)[C@H](CC(=O)O)NC(=O)[C@@H](n1c(=O)c3ccncc3n(C)c1=O)c1cc(ccc1F)CO2 (single isomer, unassigned) [Example 67] |
| 10 | Cc1cc2cc(c1F)[C@H](CC(=O)O)NC(=O)[C@@H](n1cc(CCN3CCC(F)(F)CC3)c(C(F)(F)F)cc1=O)c1cc(ccc1F)Oc1cccc(C)c1-2 (single isomer, unassigned) [Example 63] |
| 4.9 | Cc1cc2cc(c1F)[C@H](CC(=O)O)NC(=O)[C@@H](n1cc(CCN3CC(F)C3)c(C(F)(F)F)cc1=O)c1cc(cc(Cl)c1F)COc1cccc(C)c1-2 (single isomer, unassigned) [Example 49] |

The next lines start with the compound.

| SMILES | EC50 [nM] |
| --- | --- |
| Cc1cc2cc(c1F)[C@H](CC(=O)O)NC(=O)[C@@H](n1cc(CCN3CC(F)C3)c(C(F)(F)F)cc1=O)c1cc(ccc1F)COc1cc(C(F)(F)F)cc(C)c1-2 (relative stereo) [Example 65, [(15R*,18S)-13,20-difluoro-15-{5-[2-(3-fluoroazetidin-1-yl)ethyl]-2-oxo-4-(trifluoromethyl)pyridin-1-yl}-3,21-dimethyl-16-oxo-5-(trifluoromethyl)-8-oxa-17-azatetracyclo[17.3.1.1^{10,14}.0^{2,7}]tetracosa-1(23),2(7),3,5,10,12,14(24),19,21-nonaen-18-yl]acetic acid] | 77 |
| Cc1cc2cc(c1F)[C@H](CC(=O)O)NC(=O)[C@@H](n1cc(CCN3CC(F)C3)c(C(F)(F)F)cc1=O)c1cc(ccc1F)Oc1cc(C(F)(F)F)cc(C)c1-2 (single isomer, unassigned) [Example 64] | 6.4 |
| Cc1cccc2c1-c1cc(C(F)F)c(F)c(c1)[C@H](CC(=O)O)NC(=O)[C@@H](n1cc(CCN3CC(F)C3)c(C(F)(F)F)cc1=O)c1cc(ccc1F)O2 (relative stereo) [Example 37, [(14R*,17S)-20-(difluoromethyl)-12,19-difluoro-14-{5-[2-(3-fluoroazetidin-1-yl)ethyl]-2-oxo-4-(trifluoromethyl)pyridin-1-yl}-3-methyl-15-oxo-8-oxa-16-azatetracyclo[16.3.1.1^{9,13}.0^{2,7}]tricosa-1(22),2(7),3,5,9,11,13(23),18,20-nonaen-17-yl]acetic acid] | 1.3 |
| Cc1cccc2c1-c1cc(c(F)c(C(F)(F)F)c1)[C@H](CC(=O)O)NC(=O)[C@@H](n1cc(CCN(C)C)c(C(F)(F)F)cc1=O)c1cccc(c1)O2 (relative stereo) [Example 16, [(14R*,17S)-14-{5-[2-(dimethylamino)ethyl]-2-oxo-4-(trifluoromethyl)pyridin-1-yl}-19-fluoro-3-methyl-15-oxo-20-(trifluoromethyl)-8-oxa-16-azatetracyclo[16.3.1.1^{9,13}.0^{2,7}]tricosa-1(22),2(7),3,5,9,11,13(23),18,20-nonaen-17-yl]acetic acid] | 14 |
| Cc1cc2cc(c1F)[C@H](CC(=O)O)NC(=O)[C@@H](n1cc(CCN3CC(F)C3)c(C(F)(F)F)cc1=O)c1cc(ccc1F)COc1nn(CC3CC3)cc1-2 (single isomer, unassigned) [Example 70] | > 100 |
| Cc1cc2cc(c1F)[C@H](CC(=O)O)NC(=O)[C@@H](n1cc(CCN3CC(F)C3)c(C(F)(F)F)cc1=O)c1cc(ccc1F)Oc1nn(C)cc1-2 (single isomer, unassigned) [Example 43] | 480 |
| Cc1cccc2c1-c1cc(C3CC3)c(F)c(c1)[C@H](CC(=O)O)NC(=O)[C@@H](n1cc(CCN3CC(F)C3)c(C(F)(F)F)cc1=O)c1cc(ccc1F)O2 (relative stereo) [Example 24, [(14R*,17S)-20-cyclopropyl-12,19-difluoro-14-{5-[2-(3-fluoroazetidin-1-yl)ethyl]-2-oxo-4-(trifluoromethyl)pyridin-1-yl}-3-methyl-15-oxo-8-oxa-16-azatetracyclo[16.3.1.1^{9,13}.0^{2,7}]tricosa-1(22),2(7),3,5,9,11,13(23),18,20-nonaen-17-yl]acetic acid] | 1.9 |

From patent publication US20240279214A1, “ALPHA4 BETA7 INEGRIN ANTAGONISTS AND USES THEREOF” (XinThera, Inc., priority 2022, published 2024)
